How the values were obtained:
[1] = tested on: JJN3 cells; conditions: JJN3 cultured in the absence of glucose; metformin 5 mM; 72 hrs
Description: (§1) To investigate whether mitochondrial oxidative phosphorylation can render MM cells resistant to glucose-deprivation we treated cells with metformin. which is a known mitochondrial complex 1 inhibitor [25-27]).

[2] = tested on: L363 cells; experiment: Viability of MM cell lines by Annexin/DAPI staining (FIG. 2); format: cell-based; conditions: glucose-deprived L363 cells + galactose 10 mM; metformin 5 mM; 72 hrs
Description: as §1

[3] = tested on: MM cells; experiment: Viability of MM cells, glucose deprivation / ritonavir / metformin; format: cell-based; conditions: absence of glucose; metformin 5 mM; 72 hrs
Description: as §1

[4] = molecular target: T1, GLUT4 (Homo sapiens, UniProt P14672); conditions: cited from earlier work
T1 sequence (P14672 1-509): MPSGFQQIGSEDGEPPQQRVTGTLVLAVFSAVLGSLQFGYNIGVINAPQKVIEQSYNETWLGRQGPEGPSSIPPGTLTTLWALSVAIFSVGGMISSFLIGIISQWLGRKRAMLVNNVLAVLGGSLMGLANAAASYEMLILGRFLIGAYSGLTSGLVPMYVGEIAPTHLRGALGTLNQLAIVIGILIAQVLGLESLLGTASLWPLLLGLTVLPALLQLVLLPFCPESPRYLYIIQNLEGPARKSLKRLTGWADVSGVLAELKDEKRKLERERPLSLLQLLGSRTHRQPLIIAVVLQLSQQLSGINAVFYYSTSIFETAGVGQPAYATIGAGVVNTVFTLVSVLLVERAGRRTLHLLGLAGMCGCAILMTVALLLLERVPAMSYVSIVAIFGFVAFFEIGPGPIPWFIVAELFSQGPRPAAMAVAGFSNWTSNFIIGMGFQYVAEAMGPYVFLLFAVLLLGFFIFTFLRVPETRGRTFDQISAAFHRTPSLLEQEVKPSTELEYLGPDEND

[5] = tested on: MM; experiment: Ritonavir anti-myeloma effects in myeloma cell lines and patient samples; format: cell-based
[6] = tested on: L363 cells; experiment: Oxygen consumption rate (OCR), SeaHorse XF24 bioanalyzer; format: cell-based; conditions: sensitive L363 cells; ritonavir 20 uM; 17 hrs
Procedure: (§2) FIG. 3. […] Cellular viability was assessed before OCR measurements and 400,000 viable cells were plated in 5 replicates. Result is representative of an n=3.

[7] = tested on: JJN3 cells; experiment: as above; format: cell-based; conditions: resistant JJN3 cells; ritonavir alone
Procedure: as §2

[8] = molecular target: T2, GLUT1 (Homo sapiens, UniProt P11166); conditions: cited from earlier work
T2 sequence (P11166 1-492): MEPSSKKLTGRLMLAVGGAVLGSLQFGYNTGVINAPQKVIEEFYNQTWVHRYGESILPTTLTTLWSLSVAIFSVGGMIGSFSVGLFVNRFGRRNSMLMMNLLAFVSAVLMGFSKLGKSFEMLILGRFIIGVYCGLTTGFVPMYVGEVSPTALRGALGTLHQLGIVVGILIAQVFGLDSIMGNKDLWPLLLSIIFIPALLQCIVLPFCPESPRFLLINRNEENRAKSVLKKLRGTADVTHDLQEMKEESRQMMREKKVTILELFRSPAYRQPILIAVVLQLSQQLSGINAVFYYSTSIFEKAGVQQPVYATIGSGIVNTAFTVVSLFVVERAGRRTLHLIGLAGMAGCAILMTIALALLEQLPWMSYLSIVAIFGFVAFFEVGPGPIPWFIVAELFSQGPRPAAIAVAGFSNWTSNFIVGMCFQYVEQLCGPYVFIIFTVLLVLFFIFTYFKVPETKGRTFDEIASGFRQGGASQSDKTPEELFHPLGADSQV

[9] = tested on: NCI-60 cell lines; experiment: NCI-60 panel viability, 48 hr MTS assay (FIG. 5); format: cell-based; conditions: read-out: median reduction of viability
Description: FIG. 5. […] 48 hr MTS assay, n=3+/−SEM, p<0.05
GLUT4 activity may be prevalent across multiple cancers. To examine the dependency of other cancers on GLUT4 activity, we utilized the NCI-60 cancer cell line panel. […] The NCI-60 lines are representative of genetic heterogeneity within each cancer group. Therefore, it is possible that we may detect a role for GLUT4 in a subset of cancers within each group connected to a specific genotype.

[10] = achieved in humans; read-out: Cmax plasma concentration; cited from earlier work
[11] = tested on: U266 cells; experiment: Cell death by DAPI staining with doxorubicin at 11 mM or 0.5 mM glucose (FIG. 1C); format: cell-based; conditions: resistant U266 cells; glucose-free culture (0.5 mM vs 11 mM glucose); 48 hours
Procedure: (§3) FIG. 1. Glucose metabolism sustains myeloma cell proliferation, viability and promotes chemoresistance: (A) Primary myeloma cells, normal B lymphocytes (NBL) and four MM cell lines were cultured in medium containing 0 or 5 mM glucose for 48 (NBL, MM cell lines) or 72 (MM Patient) hours. Cell viability was determined by flow cytometric analysis of AnnexinV/DAPI staining and normalized to 5 mM samples. Data are means±SEM (n=2 for MM cell lines and NBL. n=1 for MM Patient sample). (B) MM cell lines were cultured in various glucose concentrations for 72 hours. Viable cell quantities were determined by MTS assay (represented by absorbance at 490 nm) and normalized to 5 mM samples. U266 cells (C) and normal PBMC (D) were cultured in 11 mM or 0.5 mM glucose-containing medium for 48 hours in the presence of the indicated concentrations of doxorubicin. Cell death was determined by OAPI staining. […] Glucose consumption rates and lactate production rates were determined and normalized to control shRNA-expressing cells. (G-I) Cells from part (E) were analyzed for viability and proliferation. (J) JJN3 cells transduced with control or GLUT1-targeted shRNA and analyzed for viability and proliferation. Viable cell densities are expressed as fold change relative to the day 0 reading of control shRNA-expressing cells. Cells from parts G-J were evaluated for viability via trypan blue exclusion. […]

[12] = tested on: normal PBMC; experiment: Cell death by DAPI staining with doxorubicin at 11 mM or 0.5 mM glucose (FIG. 1D); format: cell-based; conditions: 48 hours
Procedure: as §3

## CN(C)C(=N)N=C(N)N [metformin]
[1]
  sensitization of glucose deprived cells to metformin (viability): sensitized to metformin
[2]
  reversal of galactose rescue of viability: reverses the metabolic rescue provided by galactose
[3]
  sensitization of glucose deprived MM cells to metformin (viability): sensitized to metformin

## CC(C)c1nc(CN(C)C(=O)N[C@H](C(=O)N[C@@H](Cc2ccccc2)C[C@H](O)[C@H](Cc2ccccc2)NC(=O)OCc2cncs2)C(C)C)cs1 [ritonavir]
[4]
  inhibition of cytoplasmic glucose binding site: competitively inhibit
[5]
  chemosensitization of resistant MM to doxorubicin: chemosensitizing
[5]; physiologically achievable doses of ritonavir
  glucose inhibitory and growth inhibitory effects in MM: significant glucose inhibitory and growth inhibitory effects
[6]
  oxygen consumption rate (OCR): significant reduction in OCR
[7]
  oxygen consumption rate (OCR): increase in oxygen consumption rate
[8]
  inhibition of cytoplasmic glucose binding site: competitively inhibit
[9]
  cytotoxicity at 20 µM: ≥ 50%
[10]
  Cmax: 16 µM

## COc1cccc2c1C(=O)c1c(O)c3c(c(O)c1C2=O)C[C@@](O)(C(=O)CO)C[C@@H]3O[C@H]1C[C@H](N)[C@H](O)[C@H](C)O1 [doxorubicin]
[11]
  sensitivity to doxorubicin (cell death): sensitizes
[12]
  impact of doxorubicin on normal PBMC (cell death): not impacted

Reference: patent US9636329B2, “Methods of treating cancer with glut inhibitors and oxidative phosphorylation inhibitors” (Northwestern University, priority 2012, dated 2017)
